How the values were obtained:
[1] = Volatility of perfuming compounds (Tables 4 to 10), with top/middle/bottom note type; type: physicochemical
Procedure, shortened: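 Volatility is expressed in μg/l in air. Top notes are 70,000 to 100 μg/l, middle notes 99 to 50 μg/l, and bottom notes 49 to 0.1 μg/l. Compounds are grouped by olfactive family: watery, green, fruity, citrus, sweet, gourmand and woody.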

[2] = Odor threshold and odor value of perfuming compounds (Tables 4 to 10)
[3] = Table 4, watery note, top, middle or bottom note
[4] = Table 4, watery note, equals volatility divided by odor threshold
[5] = Table 6, perfuming compounds having a fruity note
[6] = Table 6, perfuming compounds having a fruity note, note type by volatility
[7] = Table 8, perfuming compounds having a sweet note
[8] = Table 8, perfuming compounds having a sweet note, note type by volatility
[9] = note type (Top/Middle/Bottom) by volatility, perfuming compounds having a green note
[10] = perfuming compounds having a green note
[11] = Table 7, citrus note, top, middle or bottom note
[12] = Table 7, citrus note, equals volatility divided by odor threshold
[13] = Table 9, perfuming compounds having a gourmand note, note type by volatility
[14] = Table 10, perfuming compounds having a woody note, note type by volatility

CCCCCCCCCC=O [DECANAL″]
Volatility (μg/l air) ([1]; Table 4, watery note): 466.56 μg/l air | Type [1, 3]: TOP (perfuming compounds having a volatility ranging from 70,000 to 100 μg/l in air are referred to as “top notes”) | Odor Threshold (μg/l air) ([2]; Table 4, watery note): 1.92E−03 μg/l air | Odor Value [2, 4]: 2.43E+05

CCc1occc(=O)c1O [2-ETHYL-3-HYDROXY-4(4H)-PYRANONE]
Volatility [1, 5]: 48.86 μg/l air | Type [1, 6]: Bottom | Volatility [1, 7]: 48.86 μg/l air | Type [1, 8]: Bottom | Odor Threshold [2, 5]: 6.45E−05 μg/l air | Odor Value [2, 5]: 7.57E+05 | Odor Threshold [2, 7]: 6.45E−05 μg/l air | Odor Value [2, 7]: 7.57E+05

CCOC(=O)C(C)CC (racemic) [(+−)-ethyl 2-methylbutanoate]
Volatility [1, 5]: 83769.16 μg/l air | Type [1, 6]: TOP (perfuming compounds having a volatility ranging from 70,000 to 100 μg/l in air are referred to as “top notes”) | Type [1, 9]: Top | Volatility (μg/l air) [1, 10]: 83769.16 μg/l air | Odor Threshold (μg/l air) [2, 10]: 1.26E−04 μg/l air

tricyclo[5.2.1.0~2,6~]dec-3-en-8-yl acetate (A) + tricyclo[5.2.1.0~2,6~]dec-4-en-8-yl acetate (B)
Volatility (μg/l air) ([1]; Table 7, citrus note): 96.53 μg/l air | Type [1, 11]: Middle | Odor Threshold (μg/l air) ([2]; Table 7, citrus note): 7.19E−04 μg/l air | Odor Value [2, 12]: 1.34E+05

CCCCCCOC(=O)CCCCC [HEXYL HEXANOATE]
Volatility [1, 5]: 105.52 μg/l air | Type [1, 6]: TOP (perfuming compounds having a volatility ranging from 70,000 to 100 μg/l in air are referred to as “top notes”) | Odor Threshold [2, 5]: 9.98E−02 μg/l air | Odor Value [2, 5]: 1.06E+03

C=CCCCCCCCCO [9-DECEN-1-OL]
Volatility [1, 5]: 26.88 μg/l air | Type [1, 6]: Bottom | Volatility (μg/l air) ([1]; Table 7, citrus note): 26.88 μg/l air | Type [1, 11]: Bottom | Odor Threshold [2, 5]: 8.92E−03 μg/l air | Odor Value [2, 5]: 3.01E+03 | Odor Threshold (μg/l air) ([2]; Table 7, citrus note): 8.92E−03 μg/l air | Odor Value [2, 12]: 3.01E+03

COC(=O)Cc1ccccc1 [METHYL PHENYLACETATE]
Volatility [1, 5]: 555.30 μg/l air | Type [1, 6]: TOP (perfuming compounds having a volatility ranging from 70,000 to 100 μg/l in air are referred to as “top notes”) | Volatility [1, 7]: 555.30 μg/l air | Type [1, 8]: Top | Volatility ([1]; Table 9, gourmand note): 555.30 μg/l air | Type [1, 13]: Top | Odor Threshold [2, 7]: 3.21E−04 μg/l air | Odor Value [2, 7]: 1.73E+06 | Odor Threshold ([2]; Table 9, gourmand note): 3.21E−04 μg/l air

CC(=O)/C=C/C1C(C)CCC(C)C1(C)C (racemic)
Type [1, 14]: Bottom | Volatility ([1]; Table 10, woody note): 20.50 μg/l air | Odor Threshold ([2]; Table 10, woody note): 5.14E−04 μg/l air

CCCCC1CCCC(=O)O1 (centres unmarked) [5-NONANOLIDE]
Volatility [1, 5]: 23.87 μg/l air | Type [1, 6]: Bottom | Volatility [1, 7]: 23.87 μg/l air | Type [1, 8]: Bottom | Volatility ([1]; Table 9, gourmand note): 23.87 μg/l air | Type [1, 13]: Bottom | Odor Threshold [2, 5]: 1.16E−05 μg/l air | Odor Value [2, 5]: 2.06E+06 | Odor Threshold [2, 7]: 1.16E−05 μg/l air | Odor Value [2, 7]: 2.06E+06 | Odor Threshold ([2]; Table 9, gourmand note): 1.16E−05 μg/l air

CCCCCC(C#N)CCC (racemic) [(+−)-2-propylheptanenitrile]
Volatility [1, 5]: 439.00 μg/l air | Type [1, 6]: TOP (perfuming compounds having a volatility ranging from 70,000 to 100 μg/l in air are referred to as “top notes”) | Volatility (μg/l air) ([1]; Table 7, citrus note): 439.00 μg/l air | Type [1, 11]: Top | Odor Threshold (μg/l air) ([2]; Table 7, citrus note): 7.83E−02 μg/l air | Odor Value [2, 12]: 5.61E+03

CC(C)=CCCC(C)CCCC(C)C=O (racemic)
Volatility (μg/l air) ([1]; Table 4, watery note): 18.23 μg/l air | Type [1, 3]: bottom (perfuming compounds having a volatility ranging from 49 to 0.1 μg/l in air are referred to as “bottom notes”) | Odor Threshold (μg/l air) ([2]; Table 4, watery note): 1.59E−02 μg/l air | Odor Value [2, 4]: 1.15E+03

CCCCCC=O [hexanal]
Volatility (μg/l air) ([1]; Table 7, citrus note): 68294.85 μg/l air | Type [1, 11]: Top | Type [1, 9]: Top | Volatility (μg/l air) [1, 10]: 68294.85 μg/l air | Odor Threshold (μg/l air) ([2]; Table 7, citrus note): 1.76E−03 μg/l air | Odor Value [2, 12]: 3.88E+07 | Odor Threshold (μg/l air) [2, 10]: 1.76E−03 μg/l air

COc1nccnc1CCCC(C)C
Type [1, 9]: Top | Volatility (μg/l air) [1, 10]: 195.24 μg/l air | Odor Threshold (μg/l air) [2, 10]: 1.18E−07 μg/l air

CC(=O)OCCC1=CCC2CC1C2(C)C (centres unmarked)
Type [1, 14]: Middle | Volatility ([1]; Table 10, woody note): 60.02 μg/l air | Odor Threshold ([2]; Table 10, woody note): 1.10E−01 μg/l air

CC(C)Cc1ccc2ccccc2n1 [2-ISOBUTYLQUINOLINE]
Volatility [1, 7]: 8.73 μg/l air | Type [1, 8]: Bottom | Odor Threshold [2, 7]: 1.93E−04 μg/l air | Odor Value [2, 7]: 4.53E+04
